Assays:
human SGLT2 = biological target: T1, human SGLT2 (Homo sapiens, UniProt P31639); assay: Assay for SGLT2 inhibition (14C-AMG uptake in CHOK1 cells expressing human SGLT2); assay type: cell-based; settings: CHOK1 cells expressing human SGLT2; 14C-AMG uptake, 0.5 mM, 2 hours at 37° C.; read-out: IC50
T1 construct: expressed in transfected cells; host or cells: CHOK1 (Chinese hamster ovary) cells, kept under Geneticin selection
T1 sequence (P31639 1-672): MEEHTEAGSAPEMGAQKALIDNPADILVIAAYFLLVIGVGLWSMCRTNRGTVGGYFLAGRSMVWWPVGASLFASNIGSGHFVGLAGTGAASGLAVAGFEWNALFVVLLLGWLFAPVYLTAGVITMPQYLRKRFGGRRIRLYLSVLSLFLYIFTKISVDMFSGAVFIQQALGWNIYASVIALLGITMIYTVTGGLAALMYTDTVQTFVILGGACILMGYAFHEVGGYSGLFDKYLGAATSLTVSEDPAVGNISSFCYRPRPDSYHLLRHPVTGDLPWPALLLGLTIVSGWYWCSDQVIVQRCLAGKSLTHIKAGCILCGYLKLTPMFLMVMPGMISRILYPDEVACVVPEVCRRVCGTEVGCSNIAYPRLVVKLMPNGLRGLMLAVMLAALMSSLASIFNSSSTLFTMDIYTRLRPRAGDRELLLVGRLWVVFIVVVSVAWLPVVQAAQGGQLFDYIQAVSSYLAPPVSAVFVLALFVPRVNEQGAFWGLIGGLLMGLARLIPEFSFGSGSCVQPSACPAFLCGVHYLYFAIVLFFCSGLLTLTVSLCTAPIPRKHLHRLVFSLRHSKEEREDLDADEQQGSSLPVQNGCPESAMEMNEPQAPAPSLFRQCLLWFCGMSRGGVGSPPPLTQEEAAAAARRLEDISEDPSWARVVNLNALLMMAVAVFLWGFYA
Protocol: 1. Assay for SGLT2 Inhibition
Compounds described in the above examples were used for the SGLT2 inhibition assay.
CHOK1 cells expressing human SGLT2 were seeded in 24-well plates at a density of 400,000 cells/well in F-12 nutrient mixture (Ham's F-12) containing 10% fetal bovine serum, 400 μg/ml Geneticin, 50 units/ml sodium penicillin G (Gibco-BRL) and 50 μg/ml streptomycin sulfate. After 2 days of culture at 37° C. in a humidified atmosphere containing 5% CO2, cells were washed once with the assay buffer (137 mM NaCl, 5 mM KCl, 1 mM CaCl2, 1 mM MgCl2, 50 mM Hepes, and 20 mM Tris, pH 7.4) and incubated with 250 μl of the buffer containing test compounds for 10 min at 37° C. Test compounds were dissolved in DMSO. The final concentration of DMSO was 0.5%. The transport reaction was initiated by addition of 50 μl [^14C]-methyl-α-D-glucopyranoside (^14C-AMG) solution (final concentration, 0.5 mM). After incubation for 2 hours at 37° C., the uptake was stopped by aspiration of the incubation mixture, the cells were washed three times with ice-cold PBS. Then, cells were solubilized with 0.3 N NaOH and aliquots were taken for determination of radioactivity by a liquid scintillation counter. Nonspecific AMG uptake was defined as that which occurred in the presence of 100 μM of phlorizin, a specific inhibitor of sodium-dependent glucose cotransporter. Specific uptake was normalized for the protein concentrations measured by the method of Bradford. The 50% inhibitory concentration (IC50) values were calculated from dose-response curves by least square method.

IC50 (human SGLT2): 2.8 nM | melting point: 195 to 200 °C
SMILES: Cc1cccc2c1c(Cc1ccc(-c3ccccn3)s1)cn2[C@@H]1O[C@H](CO)[C@@H](O)[C@H](O)[C@H]1O [Example 52, 4-Methyl-3-(5-(2-pyridyl)thiophen-2-yl-methyl)-1-(β-D-gluco-pyranosyl)indole]

— patent US7935674B2, “Indole derivatives” (Mitsubishi Tanabe Pharma Corporation, priority 2005, dated 2011)
